Experiment [1] concerns monocytic THP1 cells infected with HIV VSV-G pseudotyped GFP-NEF reporter virus. Kind of experiment: cells. In kind it is cell-based. Particulars: Human immunodeficiency virus 1, THP-1, 24 h.
Experiment [2] deals with CD4 cells, isolated from healthy donor PMBCs, infected with HIV VSV-G pseudotyped GFP-GAG reporter virus. In words: tissue or blood. In kind it is cell-based. Particulars: Homo sapiens, 72 h.

In general, EC50 refers to the midpoint of the concentration-response curve.

Structures are written as SMILES.

Consider `Cc1cc(/C=C/C#N)cc(C)c1Oc1nc(NC23CC(C#N)(C2)C3)nc2[nH]nc(C)c12` [Compound 119, 3-[[4-[4-[(E)-2-cyanovinyl]-2,6-dimethyl-phenoxy]-3-methyl-1H-pyrazolo[3,4-d]pyrimidin-6-yl]amino]bicyclo[11.1.1]pentane-1-carbonitrile], for which the EC50 in experiment [1] is 0.0193 µM; in experiment [2] it was 0.0169 µM.
As for `Cc1cc(/C=C/C#N)cc(C)c1Oc1nc(NC23CC(C#N)(C2)C3)nc2nn(C)cc12` [Compound 120, 3-[[4-[4-[(E)-2-cyanovinyl]-2,6-dimethyl-phenoxy]-2-methyl-pyrazolo[3,4-d]pyrimidin-6-yl]amino]bicyclo[1.1.1]pentane-1-carbonitrile], the EC50 came out at 0.0211 µM in experiment [1] and 0.0229 µM in experiment [2].
Turning to `Cc1cc(/C=C/C#N)cc(C)c1Oc1nc(NC23CC(C#N)(C2)C3)nc2cnn(C)c12` [Compound 122], the EC50 in experiment [1] turned out to be 0.054 µM; in experiment [2], 0.0473 µM.
As to `Cc1nc2nc(NC34CC(C#N)(C3)C4)nc(Oc3c(C)cc(/C=C/C#N)cc3C)c2s1` [Compound 124, 3-[[7-[4-[(E)-2-cyanovinyl]-2,6-dimethyl-phenoxy]-2-methyl-thiazolo[4,5-d]pyrimidin-5-yl]amino]bicyclo[11.1.1]pentane-1-carbonitrile], the 50% effective concentration (EC50) worked out at 0.0617 µM in experiment [1] and 0.027 µM in experiment [2].
The like results for `Cc1cc(/C=C/C#N)cc(C)c1Oc1nc(NC23CC(C#N)(C2)C3)nc2c1cnn2C` [Compound 128, 3-[[4-[4-[(E)-2-cyanovinyl]-2,6-dimethyl-phenoxy]-1-methyl-pyrazolo[3,4-d]pyrimidin-6-yl]amino]bicyclo[11.1.1]pentane-1-carbonitrile] were, in that order, 0.131 µM and 0.106 µM.
For `Cc1cc(/C=C/C#N)cc(C)c1Oc1nc(NC23CC(C#N)(C2)C3)nc2c1nnn2C` [Compound 129, 3-[[7-[4-[(E)-2-cyanovinyl]-2,6-dimethyl-phenoxy]-3-methyl-triazolo[4,5-d]pyrimidin-5-yl]amino]bicyclo[11.1.1]pentane-1-carbonitrile], in that order: 0.168 µM and 0.131 µM.
The like results for `Cc1cc(/C=C/C#N)cc(C)c1Oc1nc(NC23CC(C#N)(C2)C3)nc2c1CCN2` [Compound 130, 3-[[4-[4-[(E)-2-cyanovinyl]-2,6-dimethyl-phenoxy]-6,7-dihydro-5H-pyrrolo[2,3-d]pyrimidin-2-yl]amino]bicyclo[11.1.1]pentane-1-carbonitrile] were, in that order, 0.221 µM and 0.056 µM.
Consider `Cc1cc(/C=C/C#N)cc(C)c1Oc1nc(NC23CC(C#N)(C2)C3)nc2onc(C)c12` [Compound 142, (E)-3-((4-(4-(2-cyanovinyl)-2,6-dimethylphenoxy)-3-methylisoxazolo[5,4-d]pyrimidin-6-yl)amino)bicyclo[1.1.1]pentane-1-carbonitrile], for which the EC50 turned out to be 0.024 µM in experiment [1] and 0.0176 µM in experiment [2].
For `Cc1cc(/C=C/C#N)cc(C)c1Oc1nc(NC23CC(C#N)(C2)C3)nc2c1c(C)nn2C` [Compound 148, (E)-3-((4-(4-(2-cyanovinyl)-2,6-dimethylphenoxy)-1,3-dimethyl-1H-pyrazolo[3,4-d]pyrimidin-6-yl)amino)bicyclo[1.1.1]pentane-1-carbonitrile], in that order: 0.0481 µM and 0.041 µM.
For `Cc1cc(/C=C/C#N)cc(C)c1Oc1nc(NC23CC(C#N)(C2)C3)nc2c1CN(C)C2` [Compound 150, (E)-3-((4-(4-(2-cyanovinyl)-2,6-dimethylphenoxy)-6-methyl-6,7-dihydro-5H-pyrrolo[3,4-d]pyrimidin-2-yl)amino)bicyclo[1.1.1]pentane-1-carbonitrile], in that order: 0.0992 µM and 0.11 µM.
For the molecule `Cc1cc(/C=C/C#N)cc(C)c1Oc1nc(NC23CC(C4COC4)(C2)C3)nc2[nH]nc(C)c12` [Compound 154, (E)-3-(3,5-dimethyl-4-((3-methyl-6-((3-(oxetan-3-yl)bicyclo[1.1.1]pentan-1-yl)amino)-1H-pyrazolo[3,4-d]pyrimidin-4-yl)oxy)phenyl)acrylonitrile], the figures for the half-maximal effective concentration (EC50) in experiment [1] and in experiment [2] were 0.235 µM and 0.324 µM, respectively.

The values are drawn from patent US20250333424A1, “ANTIVIRAL COMPOUNDS” (Gilead Sciences, Inc., priority 2024, published 2025).
